From PubChem BioAssay AID180 (DTP/NCI, 2004) come the findings set out here.

The assay concerns BDF1 mice, Adenocarcinoma 755 s.c., tumor weight T/C. Nature of the assay: NCI In Vivo Anticancer Drug Screen. Data for tumor model Adenocarcinoma 755 (subcutaneous) in B6D2F1 (BDF1) mice. To be noted: endpoint: mean tumor weight, schedule: Q01DX011 (ip), higher = larger tumour. The procedure, abridged:
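Compound activity was tested in mice carrying transplanted tumors. Survival or tumor size was measured, and each value is the treated-group measurement divided by that of the vehicle-treated control group (T/C).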

Setting [1] is: dose: 200.0 mg/kg/injection, vehicle: other.
Setting [2] is: dose: 28.0 mg/kg/injection, vehicle: carboxymethylcellulose (CMC).
Setting [3] is: dose: 113.0 mg/kg/injection, vehicle: carboxymethylcellulose (CMC).
Setting [4] is: dose: 225.0 mg/kg/injection, vehicle: carboxymethylcellulose (CMC).
The mark [5] stands for this setting: dose: 30.0 mg/kg/injection, vehicle: methylcellulose (MC).
The mark [6] stands for this setting: dose: 25.0 mg/kg/injection, vehicle: methylcellulose (MC).
The mark [7] stands for this setting: dose: 25.0 mg/kg/injection, vehicle: other.
The mark [8] stands for this setting: dose: 50.0 mg/kg/injection, vehicle: other.
Setting [9] is: dose: 56.0 mg/kg/injection, vehicle: carboxymethylcellulose (CMC).

Several values for one entry are separate records, joined by “and”; a condition that tells them apart may be missing. Equal entries are not always repeated.

What is called T/C is the result in the treated group divided by that in the control group, in per cent. For `NC(CCCC(N)C(=O)O)C(=O)O` (configuration not stated), the T/C under setting [1] is 75 % of control; the T/C (dose: 400.0 mg/kg/injection, vehicle: other) was 77 % of control; the T/C (dose: 600.0 mg/kg/injection, vehicle: other) was 93 % of control.
Regarding `O=C(O)c1cc2ccccc2c2cccc([N+](=O)[O-])c12`, the T/C (dose: 1.75 mg/kg/injection, vehicle: carboxymethylcellulose (CMC)) is 63 % of control; the T/C (dose: 3.5 mg/kg/injection, vehicle: carboxymethylcellulose (CMC)) was 89 % of control; the T/C (dose: 7.0 mg/kg/injection, vehicle: carboxymethylcellulose (CMC)) is 59 % of control.
As for `CC(CNC(=O)CCOS(C)(=O)=O)NC(=O)CCOS(C)(=O)=O` (configuration not stated), the T/C by setting is: (dose: 14.0 mg/kg/injection, vehicle: carboxymethylcellulose (CMC)) 71 % of control; under setting [2], 36 % of control and 60 % of control; under setting [3], 2 % of control (2×) and 3 % of control; under setting [4], 7 % of control.
`C/C(=N\NC(=O)c1ccncc1)c1cccc(Cl)c1`: the T/C was 47 % of control and 50 % of control (dose: 7.5 mg/kg/injection, vehicle: methylcellulose (MC)); 31 % of control under setting [5].
Take `COC1C(OC(=O)/C=C/C=C/C=C/C=C/C(=O)O)CCC2(CO2)C1C1(C)OC1CC=C(C)C` (configuration not stated): the T/C was 49 % of control (dose: 2.5 mg/kg/injection, vehicle: other); 61 % of control (dose: 5.0 mg/kg/injection, vehicle: other); 78 % of control (dose: 5.0 mg/kg/injection, vehicle: saline); 38 % of control (dose: 10.0 mg/kg/injection, vehicle: methylcellulose (MC)); 40 % of control (dose: 10.0 mg/kg/injection, vehicle: other); 94 % of control (dose: 10.0 mg/kg/injection, vehicle: saline). Besides, the T/C reads like this: (dose: 20.0 mg/kg/injection, vehicle: methylcellulose (MC)) 28 % of control; (dose: 20.0 mg/kg/injection, vehicle: other) 22 % of control; (dose: 20.0 mg/kg/injection, vehicle: saline) 49 % of control; (dose: 40.0 mg/kg/injection, vehicle: methylcellulose (MC)) 24 % of control; (dose: 40.0 mg/kg/injection, vehicle: other) 18 % of control; (dose: 40.0 mg/kg/injection, vehicle: saline) 63 % of control. In addition, the T/C (dose: 80.0 mg/kg/injection, vehicle: other) is 26 % of control and the T/C (dose: 80.0 mg/kg/injection, vehicle: saline) was 58 % of control.
As for `Nc1nc(SCC(=O)c2ccccc2)c2[nH]cnc2n1`, the T/C is 95 % of control (dose: 0.46 mg/kg/injection, vehicle: saline); 91 % of control (dose: 0.93 mg/kg/injection, vehicle: saline); 75 % of control (dose: 1.87 mg/kg/injection, vehicle: saline); 6 % of control (dose: 15.0 mg/kg/injection, vehicle: saline); 4 % of control and 6 % of control (dose: 30.0 mg/kg/injection, vehicle: saline); 4 % of control and 12 % of control (dose: 60.0 mg/kg/injection, vehicle: saline). The T/C runs as follows: (dose: 120.0 mg/kg/injection, vehicle: saline) 2 % of control; (dose: 240.0 mg/kg/injection, vehicle: saline) 2 % of control.
For the compound `Nc1ncnc2c1cnn2Cc1ccc(Cl)cc1`, the T/C is 98 % of control (dose: 9.5 mg/kg/injection, vehicle: carboxymethylcellulose (CMC)) and 38 % of control (dose: 75.0 mg/kg/injection, vehicle: carboxymethylcellulose (CMC)).
In the case of `CSc1ncnc2c1ncn2CCO`, the T/C under setting [6] was 119 % of control.
With `O=C(OCC1OC(n2cnc3c(=S)nc[nH]c32)C(OC(=O)c2ccc([N+](=O)[O-])cc2)C1OC(=O)c1ccc([N+](=O)[O-])cc1)c1ccc([N+](=O)[O-])cc1` (configuration not stated), the T/C is 70 % of control (dose: 6.25 mg/kg/injection, vehicle: other); 85 % of control (dose: 12.5 mg/kg/injection, vehicle: other); 58 % of control and 68 % of control under setting [7]; 52 % of control and 76 % of control under setting [8]; 8 % of control (dose: 75.0 mg/kg/injection, vehicle: other); 1 % of control (dose: 150.0 mg/kg/injection, vehicle: other). The T/C is 1 % of control and 6 % of control under setting [1]; 3 % of control (dose: 250.0 mg/kg/injection, vehicle: other).
As to `CCN(CC)Cc1nc2c(c(=O)n(C)c(=O)n2C)n1C`, the T/C was 93 % of control under setting [5]; 54 % of control (dose: 60.0 mg/kg/injection, vehicle: methylcellulose (MC)); 40 % of control (dose: 120.0 mg/kg/injection, vehicle: methylcellulose (MC)).
With `CCC(C)Cn1cnc2c(SCC(=O)O)nc(N)nc21` (configuration not stated), the T/C under setting [6] is 78 % of control; the T/C (dose: 80.0 mg/kg/injection, vehicle: methylcellulose (MC)) was 43 % of control; the T/C (dose: 250.0 mg/kg/injection, vehicle: methylcellulose (MC)) is 45 % of control.
Consider `O=P(Oc1ccccc1)(OP(=O)(Oc1ccccc1)N(CCCl)CCCl)N(CCCl)CCCl` (configuration not stated), for which the T/C under setting [7] was 82 % of control and the T/C under setting [8] is 66 % of control.
Turning to `O=C1NC(=O)C(c2ccccc2)(c2ccc(Cl)cc2Cl)N1` (configuration not stated), the T/C runs as follows: under setting [2], 54 % of control; (dose: 28.0 mg/kg/injection, vehicle: saline) 65 % of control; under setting [9], 79 % of control; (dose: 56.0 mg/kg/injection, vehicle: saline) 89 % of control; (dose: 112.0 mg/kg/injection, vehicle: carboxymethylcellulose (CMC)) 62 % of control; (dose: 112.0 mg/kg/injection, vehicle: saline) 64 % of control. Also, for the setting “dose: 224.0 mg/kg/injection, vehicle: saline”, the T/C is 24 % of control.
Turning to `CS(=O)(=O)OCCC(=O)NCCCCNC(=O)CCOS(C)(=O)=O`, the T/C under setting [9] is 66 % of control; the T/C (dose: 56.0 mg/kg/injection, vehicle: methylcellulose (MC)) was 85 % of control; the T/C under setting [3] was 48 % of control; the T/C (dose: 113.0 mg/kg/injection, vehicle: methylcellulose (MC)) is 31 % of control; the T/C under setting [4] is 12 % of control; the T/C (dose: 225.0 mg/kg/injection, vehicle: methylcellulose (MC)) was 8 % of control. Further, the T/C (dose: 450.0 mg/kg/injection, vehicle: carboxymethylcellulose (CMC)) was 7 % of control.
